These results are taken from patent EP4813463A2, “TYK2 INHIBITORS AND COMPOSITIONS AND METHODS THEREOF” (Lynk Pharmaceuticals Co. Ltd., priority 2023, dated 2024).

The target of one assay is T1, JAK1-JH2 domain (Homo sapiens, UniProt P23458).
T1 construct: JAK1-JH2 domain or TYK2-JH2 domain enzyme in assay buffer
Kind of assay: Binding activity test for JH2 domain of JAK1 (Tb-antibody/tracer FRET). The following applies: JH2 domain enzyme; 60 min at 25°C, then 4°C overnight; read-out: JAK1 JH2 Binding IC50. Here is the method: Binding Activity test for JH2 domain of JAK1 and TYK2 […] Add 8μL/well in echo source plate, echo will add 75nL/well with 3-fold serial dilution for 11 points in assay plate. 75nL DMSO for high control and low control. […] For low control, add 5μL/well assay buffer. And then spin down at 1000rpm and centrifuge for 30 seconds. After enzyme system prepared, add 5μL of Tb-antibody solution into each well of assay plate. Spin down at 1000 rpm and centrifuge for 30sec. After Tb-antibody added, also add 5μL of tracer into the assay plate. Spin down at 1000rpm and centrifuge for 30sec. Incubate for […] at 25°C firstly and then continue to incubate the plate at 4°C overnight. Read by envision in FRET mode. The Luminescence value was recorded by a multi-label reader Envision (PerkinElmer). […] Table 2. IC50 on JH2 domain activity (nM)

In a further assay the target is T2, TYK2-JH2 domain (Homo sapiens, UniProt P29597).
T2 construct: JAK1-JH2 domain or TYK2-JH2 domain enzyme in assay buffer
T2 sequence (P29597 589-875 limits assumed): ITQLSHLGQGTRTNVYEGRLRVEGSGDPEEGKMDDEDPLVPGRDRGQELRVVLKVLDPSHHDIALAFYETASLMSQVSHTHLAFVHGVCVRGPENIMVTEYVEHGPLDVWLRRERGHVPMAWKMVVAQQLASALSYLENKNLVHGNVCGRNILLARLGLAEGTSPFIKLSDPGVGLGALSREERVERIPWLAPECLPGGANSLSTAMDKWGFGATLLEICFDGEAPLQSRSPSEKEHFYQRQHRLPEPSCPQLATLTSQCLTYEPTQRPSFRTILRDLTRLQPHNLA
Kind of assay: Binding activity test for JH2 domain of TYK2 (Tb-antibody/tracer FRET). The conditions noted are these: for IC50: JH2 domain enzyme, 60 min at 25°C, then 4°C overnight, read-out: TYK2 JH2 Binding IC50; for JAK1/TYK2 selectivity: ratio of JAK1 JH2 to TYK2 JH2 binding IC50. An outline of the steps:
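Competitive TR-FRET binding: compounds dispensed as an 11-point 3-fold dilution series, then Tb-labelled antibody and tracer added to the JH2 protein system. Incubated at 25°C, then overnight at 4°C; FRET signal read on Envision and IC50 (nM) derived.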

Assay [1] has as its system Ba/F3-FL-TYK2-P760L cells. Kind of assay: Anti-proliferative assay in engineered Ba/F3 cells (Cell-Titer Glo, 72 h). Format: cell-based. The conditions noted are these: Mus musculus, BaF3, 72 h, 72 h compound treatment, concentration that causes 50% growth inhibition, read-out: Baf3-FL-T2P760L. Here is the method: Dimerization domain of Tel protein fused with JAK kinase domain was permanently transduced into Ba/F3 cells, whose proliferation is dependent on JAK activity in the absence of IL-3 induction. These engineered Ba/F3-FL-TYK2-P760L cells were used to monitor JAK inhibitory activities of the compounds in the cellular. Ba/F3 cells were cultured in RPMI-1640 (Corning) containing 10% fetal bovine serum. Cells were seeded at 2000/well of white flat bottom 96-well plates. The well containing medium only was used as background control. After 24h growth, cells were treated with compounds. The test compounds were dissolved in DMSO to a stock concentration of 20 mM. 3-fold serially diluted compounds for 9 concentrations with top concentration of 20 µM was added into the each well. The final DMSO concentration was 0.1%. The cells continued to grow at 37°C in 5% CO2 for 72 h after compound treatment. The viability was measured by cellular ATP determination using the Cell-Titer Glo luciferase reagent (Promega). The Luminescence value was recorded by a multi-label reader Envision (PerkinElmer). Inhibition Rate was calculated relative to vehicle (DMSO) treated control wells using following formula: % Inhibition = 100−(RLU_compound−RLU_blank)/(RLU_control−RLU_blank) × 100% [formula] wherein • RLU_compound = the relative light unit of cells treated with test compounds • RLU_blank = the relative light unit of medium with DMSO only • RLU_control = the relative light unit of cells treated with DMSO only
Table 4. Ba/F3-FL-TYK2-P760L Cells IC50 Values of Exemplary Compounds

Bounds are passed on as bounds.

T1 sequence (P23458 583-855 limits assumed): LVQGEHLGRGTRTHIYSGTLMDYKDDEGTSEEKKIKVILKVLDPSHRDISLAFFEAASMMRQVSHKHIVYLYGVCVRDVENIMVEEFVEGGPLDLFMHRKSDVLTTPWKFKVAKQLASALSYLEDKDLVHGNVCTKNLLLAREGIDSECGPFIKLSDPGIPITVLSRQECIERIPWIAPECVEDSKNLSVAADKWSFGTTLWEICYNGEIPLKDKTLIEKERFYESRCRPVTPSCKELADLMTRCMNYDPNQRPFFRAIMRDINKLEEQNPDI

As to `CCn1nc(Nc2cc(NC(=O)C3CC3)ncc2C(=O)OC)c2c(OC)c(C(OC)C(F)(F)F)ccc21` (single isomer, unassigned) [Example 66A, Methyl (R*)-6-(cyclopropanecarboxamido)-4-((1-ethyl-4-methoxy-5-(2,2,2-trifluoro-1-methoxyethyl)-1H-indazol-3-yl)amino)nicotinate], the IC50 at JAK1-JH2 domain is more than 298 nM. Also, on TYK2-JH2 domain, the IC50 came out at 2.81 nM and the JAK1/TYK2 selectivity is 106.23.

Regarding `COC(=O)c1cnc(NC(=O)C2CC2)cc1Nc1nsc2ccc(C(OC)C(F)(F)F)c(OC)c12` (single isomer, unassigned) [Example 67A, Methyl (S*)-6-(cyclopropanecarboxamido)-4-((4-methoxy-5-(2,2,2-trifluoro-1-methoxyethyl)benzo[d]isothiazol-3-yl)amino)nicotinate], the IC50 on JAK1-JH2 domain worked out at 18.6 nM. Also, at TYK2-JH2 domain, the IC50 was found to be 0.21 nM and the JAK1/TYK2 selectivity was 88.72.

As for `COC(=O)c1cnc(NC(=O)C2CC2)cc1Nc1nsc2ccc(C(OC)C(F)(F)F)c(OC)c12` (single isomer, unassigned) [Example 67B, Methyl (R*)-6-(cyclopropanecarboxamido)-4-((4-methoxy-5-(2,2,2-trifluoro-1-methoxyethyl)benzo[d]isothiazol-3-yl)amino)nicotinate], the IC50 stood at 119 nM on JAK1-JH2 domain and 0.32 nM at TYK2-JH2 domain. The JAK1/TYK2 selectivity on TYK2-JH2 domain came out at 372.97.

On to `CCn1nc(Nc2cc(NC(=O)C3CC3)ncc2C(=O)OC)c2c(OC)c(C(O)C(F)(F)F)ccc21` (single isomer, unassigned) [Example 70B, Methyl (R*)-6-(cyclopropanecarboxamido)-4-((1-ethyl-4-methoxy-5-(2,2,2-trifluoro-1-hydroxyethyl)-1H-indazol-3-yl)amino)nicotinate], for which the IC50 on JAK1-JH2 domain came out at 47.2 nM. Moreover, at TYK2-JH2 domain, the IC50 was 2.12 nM and the JAK1/TYK2 selectivity was 22.26.

Take `[2H]C([2H])([2H])CC(=O)c1cnc(NC(=O)C2CC2)cc1Nc1nn(C)c2ccc([C@@H](O)C(F)(F)F)c(OC)c12` [Example 54B, (R)-N-(4-((4-methoxy-1-methyl-5-(2,2,2-trifluoro-1-hydroxyethyl)-1H-indazol-3-yl)amino)-5-(propanoyl-3,3,3-d3)pyridin-2-yl)cyclopropanecarboxamide]: the IC50 on JAK1-JH2 domain turned out to be 7.08 nM. At TYK2-JH2 domain, the IC50 is 0.433 nM and the JAK1/TYK2 selectivity is 16.36.

For the molecule `[2H]C([2H])([2H])n1nc(Nc2cc(NC(=O)C3CC3)ncc2C(=O)OC)c2c(OC)c(C(OC)C(F)F)ccc21` (centres unmarked) [Example 69, Methyl 6-(cyclopropanecarboxamido)-4-((5-(2,2-difluoro-1-methoxyethyl)-4-methoxy-1-(methyl-d3)-1H-indazol-3-yl)amino)nicotinate], the IC50 on JAK1-JH2 domain was found to be 14.9 nM. For the same molecule, at TYK2-JH2 domain, the IC50 came to 0.13 nM and the JAK1/TYK2 selectivity worked out at 114.31.

Consider `CCONC(=O)c1cnc(NC(=O)C2CC2)cc1Nc1nn(C)c2ccc(C(OC)C(F)(F)F)c(OC)c12` (centres unmarked) [Example 75, 6-(Cyclopropanecarboxamido)-N-ethoxy-4-((4-methoxy-1-methyl-5-(2,2,2-trifluoro-1-methoxyethyl)-1H-indazol-3-yl)amino)nicotinamide], for which the IC50 is 24.7 nM at JAK1-JH2 domain and 0.09 nM on TYK2-JH2 domain. Further, the JAK1/TYK2 selectivity on TYK2-JH2 domain was 274.63.

In the case of `CCC(=O)c1cnc(NC(=O)C2CC2)nc1Nc1cccc(-c2cnn(C)n2)c1OC` [Example 158, N-(4-((2-methoxy-3-(2-methyl-2H-1,2,3-triazol-4-yl)phenyl)amino)-5-propionylpyrimidin-2-yl)cyclopropanecarboxamide], the IC50 at TYK2-JH2 domain turned out to be 0.496 nM; in assay [1] it was 68.4 nM.

With `COC(=O)c1cnc(NC(=O)C2CC2)cc1Nc1nn(C)c2ccc(C3COCCO3)c(OC)c12` (centres unmarked) [Example 160, Methyl 4-((5-(1,4-dioxan-2-yl)-4-methoxy-1-methyl-1H-indazol-3-yl)amino)-6-(cyclopropanecarboxamido)nicotinate], the IC50 on TYK2-JH2 domain was found to be 0.709 nM; in assay [1], 119 nM.

`COC(=O)c1cnc(NC(=O)C2CC2)cc1Nc1nn(C)c2ccc(C3(C(F)(F)F)CC3)c(OC)c12` [Example 161, Methyl 6-(cyclopropanecarboxamido)-4-((4-methoxy-1-methyl-5-(1-(trifluoromethyl)cyclopropyl)-1H-indazol-3-yl)amino)nicotinate]: the IC50 on TYK2-JH2 domain came out at 0.568 nM; in assay [1] it was 74 nM.

With `COC(=O)c1cnc(NC(=O)C2CC2)cc1Nc1nn(C)c2ccc(C3(C#N)CC3)c(OC)c12` [Example 162, Methyl 4-((5-(1-cyanocyclopropyl)-4-methoxy-1-methyl-1H-indazol-3-yl)amino)-6-(cyclopropanecarboxamido)nicotinate], the IC50 came out at 0.261 nM at TYK2-JH2 domain and 26.6 nM in assay [1].

For the molecule `COC(=O)c1cnc(NC(=O)C2CC2)cc1Nc1nn(C(F)(F)F)c2ccc(C(OC)C(F)(F)F)c(OC)c12` (centres unmarked) [Example 163, Methyl 6-(cyclopropanecarboxamido)-4-((4-methoxy-5-(2,2,2-trifluoro-1-methoxyethyl)-1-(trifluoromethyl)-1H-indazol-3-yl)amino)nicotinate], the IC50 at TYK2-JH2 domain came to 0.488 nM; in assay [1] it was 56.1 nM.

For the molecule `COC(=O)c1cnc(NC(=O)C2CC2)cc1Nc1nn(C)c2ccc(CO)c(OC)c12` [Example 164, Methyl 6-(cyclopropanecarboxamido)-4-((5-(hydroxymethyl)-4-methoxy-1-methyl-1H-indazol-3-yl)amino)nicotinate], the IC50 worked out at 0.481 nM at TYK2-JH2 domain and 50.1 nM in assay [1].

Turning to `COC(=O)c1cnc(NC(=O)C2CC2)cc1Nc1nn(C)c2ccc(C(OC)C(C)OC)c(OC)c12` (centres unmarked) [Example 165, Methyl 6-(cyclopropanecarboxamido)-4-((5-(1,2-dimethoxypropyl)-4-methoxy-1-methyl-1H-indazol-3-yl)amino)nicotinate], the IC50 was 2.71 nM on TYK2-JH2 domain and 281 nM in assay [1].

`COC(=O)c1cnc(NC(=O)C2CC2)cc1Nc1nn(C)c2ccc([C@H](OC)C(C)OC)c(OC)c12` (stereo partly drawn) [Example 166, Methyl 6-(cyclopropanecarboxamido)-4-((5-((1S)-1,2-dimethoxypropyl)-4-methoxy-1-methyl-1H-indazol-3-yl)amino)nicotinate]: the IC50 on TYK2-JH2 domain was found to be 1.11 nM; in assay [1] it was 113 nM.

Regarding `CCC(F)(F)c1cnc(NC(=O)C2CC2)cc1Nc1nccc2c1N(C)C(C)c1nn(C)nc1-2` (centres unmarked) [Example 178, N-(5-(1,1-Difluoropropyl)-4-((2,4,5-trimethyl-4,5-dihydro-2H-[1,2,3]triazolo[4,5-c][1,7]naphthyridin-6-yl)amino)pyridin-2-yl)cyclopropanecarboxamide], the IC50 came to 3.16 nM at TYK2-JH2 domain and 35 nM in assay [1].

With `COC(=O)c1cnc2cc1Nc1nn(c3ccc(C(OC)C(F)(F)F)c(OC)c13)CCOCc1nc(ccc1F)N2` (centres unmarked) [Example 179, Methyl 12-fluoro-23-methoxy-22-(2,2,2-trifluoro-1-methoxyethyl)-15-oxa-2,6,8,18,25,26-hexaazapentacyclo[16.6.1.1^{3,7}.1^{9,13}.0^{19,24}]heptacosa-1(25),3(27),4,6,9,11,13(26),19,21,23-decaene-4-carboxylate], the IC50 on TYK2-JH2 domain amounted to 0.481 nM; in assay [1], 30.9 nM.
